Several values for one entry are separate records, joined by “and”; a condition that tells them apart may be missing. Equal values may be shown once. Read-outs that look alike come from different tables or passages of the source.

The target in one assay is T1, HDAC1 (Homo sapiens, UniProt Q13547).
T1 construct: purchased BPS Biosciences
In words: HDAC enzyme assay, in vitro biochemical. The protocol:
(§1) In vitro biochemical assays were performed as described previously. Specifically, compounds were dissolved and diluted in assay buffer (50 mM HEPES, pH 7.4, 100 mM KCl, 0.001% Tween-20, 0.05% BSA, and 20 μM Tris (2-carboxyethyl) phosphine) to 6-fold the final concentration. […] The amount of substrate (acetyl-lysine tripeptide) used for each enzyme was equal to the Michaelis constant (Km), as determined by a titration curve. Substrate was diluted in assay buffer to 6-fold of the final concentration with 0.3 μM sequencing grade trypsin (Sigma-Aldrich). The substrate/trypsin mix was added to the enzyme/compound mix and the plate was shaken for 5 seconds and then placed into a SpectraMax M5 microtiter (Molecular Devices) plate reader. The enzymatic reaction was monitored over 30 minutes for release of […] after deacetylation of the lysine side chain in the peptide substrate, and the linear rate of the reaction was calculated.

A further assay has as its target T2, HDAC2 (Homo sapiens, UniProt Q92769).
T2 construct: purchased BPS Biosciences
Nature of the assay: HDAC enzyme assay, in vitro biochemical. How it is done: as §1

In another assay the target is T3, HDAC3 (Homo sapiens, UniProt O15379).
T3 construct: purchased BPS Biosciences
T3 sequence (O15379 whole entry): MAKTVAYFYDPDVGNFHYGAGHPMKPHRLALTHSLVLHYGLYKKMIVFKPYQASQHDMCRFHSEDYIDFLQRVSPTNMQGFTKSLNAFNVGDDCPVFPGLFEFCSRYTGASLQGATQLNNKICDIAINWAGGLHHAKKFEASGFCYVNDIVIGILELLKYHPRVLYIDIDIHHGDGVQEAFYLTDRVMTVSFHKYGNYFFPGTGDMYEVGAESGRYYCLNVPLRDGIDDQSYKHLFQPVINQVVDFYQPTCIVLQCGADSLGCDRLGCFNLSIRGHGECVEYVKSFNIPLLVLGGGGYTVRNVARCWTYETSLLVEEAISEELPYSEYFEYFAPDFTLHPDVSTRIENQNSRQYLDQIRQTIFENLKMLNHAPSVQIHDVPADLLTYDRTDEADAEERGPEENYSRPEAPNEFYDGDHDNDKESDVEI
T3 sequence (Q9Y618 395-489 partner limits assumed): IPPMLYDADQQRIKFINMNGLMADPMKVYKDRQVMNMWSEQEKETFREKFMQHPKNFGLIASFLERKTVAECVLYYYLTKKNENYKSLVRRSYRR
In words: HDAC enzyme assay, in vitro biochemical. As to conditions: pre-incubated 24 hours at 4°C; n = 3; read-out: IC50 against HDAC3. How it is done:
as §1

In assay [1] the test system is MV-4-11, Kasumi-1 and HL-60 cell lines. In words: Histone acetylation by immunoblotting. The assay is classed as cell-based, human. As to conditions: 24 hours, increasing doses. The source says: The EpiQuick Total Histone Extraction kit (Epigentek) was used to isolate histones. Histone lysates were size separated on Bolt 10% Bis-Tris gradient gels (Life Technologies), transferred to polyvinylidene difluoride membranes, blocked in 5% BSA, and detected using standard western blotting techniques.

The test system of assay [2] is MV-4-11 and HL-60 cells. In words: Flow cytometry, surface level of CD11b (differentiation). As to conditions: single agent, 72 hours. The assay is classed as cell-based, human. How it is done:
(§2) All compounds and/or solvent DMSO were added concurrently at the indicated doses. Flow cytometry was performed to measure surface level of CD11b, cell cycle distribution, and induction of apoptosis. CD11b and apoptosis were analyzed on a FC500 flow cytometer ([…]) and cell cycle profiled on an Attune NxT (Life Technologies).
The frequency of CD11b positive cells out of total viable cells identified by forward and side scatter profile was quantified.

Assay [3] concerns MV-4-11 and HL-60 cells. In words: Flow cytometry, cell cycle (EdU, S phase). It is filed as cell-based, human. Conditions: single agent, 72 hours. How it is done: as §2
EdU labeled cells were then mixed with FxCycle Far Red Stain (Life Technologies) and 100 μg RNase A cocktail (Life technologies) for 30 minutes before flow cytometry analysis. Edu positive populations representing S phase cells were quantified.

Assay [4] deals with MV-4-11 and HL-60 cells. Nature of the assay: Flow cytometry, apoptosis (Annexin V). It is filed as cell-based, human. As to conditions: single agent, 96 hours. The protocol:
as §2
Annexin V-positive populations were quantified.
Background: Flow cytometry measures light scatter and fluorescence of single cells or particles in a stream.

Assay [5] concerns MV-4-11 and HL-60 cells. In words: Quantitative real time PCR (qPCR) of CDKN1A, CDKN1C, GATA2, HES1. It is filed as cell-based, human. Conditions: MV-4-11 and HL-60, 48 hours. How it is done: RNA isolations were performed on a Qiacube (Qiagen) using the RNeasy Micro Kit (Qiagen) according to manufacturer’s protocol. RNA was converted to cDNA using the High Capacity RNA-to-cDNA Kit (Life Technologies) and qPCR performed using the Taqman Gene Expression Max Mix according to manufacturer’s protocol (Applied Bioscience). The following ThermoFisher taqman probes were used: GATA2 (Hs01060665_g1), GAPDH (Hs0275899_g1), ACTB (Hs00231119_m1), CDKN1A (Hs00355782_m1), CDKN1C (Hs00175938_m1), HES1 (Hs00172878_m1).
A general note: Real-time PCR tracks product formation cycle by cycle.

The subject of another assay is Kasumi-1 cells. Nature of the assay: Cell viability assay (CellTiter-Glo). Conditions: read-out: IC50 cell viability Kasumi-1; 72 hours.
The subject of the next assay is NB-4 cells. In words: Cell viability assay (CellTiter-Glo). Conditions: read-out: IC50 cell viability NB-4; 72 hours. On the technique in general: Cellular ATP, detected with luciferase, serves as a proxy for viable cell number.
The subject of assay [6] is five human AML cell lines (MV-4-11, Kasumi-1, HL-60, MOLM-13, NB-4). Nature of the assay: Cell viability assay, summary over five human AML cell lines. Conditions: 72 hours.
Method: (§3) MV-4-11, Kasumi-1, and HL-60 AML cell lines were all obtained from ATCC. MOLM-13 and NB-4 cell lines were obtained from DSMZ. […] The identity of each cell line was validated and documented by the suppliers. All experiments were performed with cells maintained at low passage numbers.
(§4) Compounds and/or solvent dimethyl sulfoxide (DMSO) were added at the same time using an HP D300 digital dispenser (Hewlett Packard) in triplicate or quadruplicate and incubated for 72 hours at 37°C. Viability was measured by adding 25 μL CellTiter-Glo (Promega), incubating for 10 minutes, and measuring luminescence on a SpectraMax (Molecular Devices). […] CI < 1 indicates synergism, CI = 1 indicates additivity, and CI > 1 indicates antagonism.
A further assay concerns MV-4-11 cells. In words: Cell viability assay (CellTiter-Glo), single agent and combination. Conditions: read-out: IC50 cell viability MV-4-11; 72 hours.
A further assay deals with MOLM-13 cells. Described as above. As to conditions: read-out: IC50 cell viability MOLM-13; 72 hours.
The subject of the next assay is MOLM-13 xenograft. In words: In vivo model of AML: MOLM-13 xenograft, time to endpoint (TTE) and survival.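 On all read-outs here: female Crl:NU(NCr)-Foxn1^nu mice bearing subcutaneous flank MOLM-13 tumors, caliper-measured twice per week, volume as width^2 × length/2, endpoint reached at 2000 mm^3 tumor volume.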 Conditions: Azacitidine 5.5 mg/kg, iv, bi-weekly; for Tumor volume: individual animal.

T2 sequence (Q92769 whole entry): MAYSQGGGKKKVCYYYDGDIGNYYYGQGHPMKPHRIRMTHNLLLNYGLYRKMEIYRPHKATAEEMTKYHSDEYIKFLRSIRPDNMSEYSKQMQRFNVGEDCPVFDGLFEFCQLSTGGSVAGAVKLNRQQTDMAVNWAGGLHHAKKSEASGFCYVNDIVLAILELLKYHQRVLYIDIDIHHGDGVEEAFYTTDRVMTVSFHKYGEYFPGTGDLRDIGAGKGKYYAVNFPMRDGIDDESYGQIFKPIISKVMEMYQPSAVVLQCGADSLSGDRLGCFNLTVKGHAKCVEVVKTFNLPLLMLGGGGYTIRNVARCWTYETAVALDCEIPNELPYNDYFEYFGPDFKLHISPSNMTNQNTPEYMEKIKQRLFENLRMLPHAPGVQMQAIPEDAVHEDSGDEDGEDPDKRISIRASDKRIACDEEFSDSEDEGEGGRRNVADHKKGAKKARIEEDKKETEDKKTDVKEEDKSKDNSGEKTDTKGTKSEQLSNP
T1 sequence (Q13547 whole entry): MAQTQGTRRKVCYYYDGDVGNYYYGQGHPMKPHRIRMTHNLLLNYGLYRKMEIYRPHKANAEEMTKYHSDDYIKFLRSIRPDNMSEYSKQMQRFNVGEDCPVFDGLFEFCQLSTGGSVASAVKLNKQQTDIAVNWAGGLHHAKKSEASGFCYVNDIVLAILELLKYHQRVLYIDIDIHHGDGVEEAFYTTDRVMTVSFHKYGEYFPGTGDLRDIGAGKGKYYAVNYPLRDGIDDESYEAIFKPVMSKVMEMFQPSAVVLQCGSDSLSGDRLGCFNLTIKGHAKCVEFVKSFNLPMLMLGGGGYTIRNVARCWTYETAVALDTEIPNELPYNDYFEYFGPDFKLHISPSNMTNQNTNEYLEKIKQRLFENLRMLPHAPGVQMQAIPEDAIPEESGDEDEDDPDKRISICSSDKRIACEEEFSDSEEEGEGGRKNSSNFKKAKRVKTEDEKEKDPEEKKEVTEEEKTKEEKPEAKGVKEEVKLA
Method for Kasumi-1 cells: as §3, §4
Method for MOLM-13 cells: as §3, §4
Method for MV-4-11 cells: as §3, §4
Method for NB-4 cells: as §3
Compounds and/or solvent dimethyl sulfoxide (DMSO) were added at the same time using an HP D300 digital dispenser (Hewlett Packard) in triplicate or quadruplicate and incubated for 72 hours at 37°C. Viability was measured by adding 25 μL CellTiter-Glo (Promega), incubating for 10 minutes, and measuring luminescence on a SpectraMax (Molecular Devices).

For the molecule `Nc1ccc(-c2cccs2)cc1NC(=O)c1ccc2c(c1)cc(C1CC1)n2CCN1CCOCC1` [ACY-1035], at HDAC1, the “selectivity for HDAC1 over HDAC3” value is recorded as “more than 150 fold”. The IC50 (in general, the concentration that inhibits the measured activity by half) is 9.4 nM at HDAC1 (pre-incubated 24 hours at 4°C, n = 3, read-out: IC50 against HDAC1); 23 nM on HDAC2 (pre-incubated 24 hours at 4°C, n = 3, read-out: IC50 against HDAC2); 2000 nM at HDAC3; 2600 nM in the assay on Kasumi-1 cells; 2800 nM with NB-4 cells; 800 to 3300 nM in assay [6] (read-out: IC50 values cell viability, range, five human AML cell lines, both compounds). Further, the IC50 in assay [6] (read-out: average IC50 value, viability of AML cells, average of five AML cell lines) amounted to 2600 nM; in the assay on MV-4-11 cells, 1400 nM; in the assay with MOLM-13 cells, 2900 nM. On HDAC2, the “selectivity for HDAC2 over HDAC3” value is recorded as “approximately 50 fold”. For the same molecule, the “acetylation on histone H2B lysine 5 (H2BK5ac) and histone H3 lysine 56 (H3K56ac)” value in [1] is “dose-dependent accumulation”. For the same molecule, in the assay with MV-4-11 and HL-60 cells [2], the “differentiation, surface expression of CD11b” value was “dose-dependent induction of differentiation”. The “cells in S phase” value in the assay on MV-4-11 and HL-60 cells [3] is “dose-dependent reduction of cells in S phase”. For the same molecule, the “apoptosis, staining for annexin V” value in the assay with MV-4-11 and HL-60 cells [4] is recorded as “increased staining for annexin V”. Also, in the assay on MV-4-11 and HL-60 cells [5], the “expression of CDKN1A, CDKN1C, GATA2 and HES1 (qPCR)” value was “up-regulated”.
`Nc1ncn([C@@H]2O[C@H](CO)[C@@H](O)[C@H]2O)c(=O)n1` [azacitidine]: in the assay with MV-4-11 and HL-60 cells [5], the “expression of CDKN1A, CDKN1C, GATA2 and HES1 (qPCR)” value is “up-regulated”. The TTE in the assay with MOLM-13 xenograft (TTE for individual animal) is 14.4 and 17 and 17.1 and 17.2 and 17.4 and 17.6 and 17.7. Moreover, the Tumor volume in the assay with MOLM-13 xenograft (day of study 1) was 108 mm3 and 126 mm3 and 144 mm3 and 172 mm3; in the assay on MOLM-13 xenograft (day of study 5) it was 172 mm3 and 126 mm3 and 245 mm3 and 196 mm3 and 365 mm3 and 256 mm3; with MOLM-13 xenograft (day of study 8), 500 mm3 and 365 mm3 and 405 mm3 and 700 mm3 and 288 mm3 and 650 mm3 and 726 mm3 and 550 mm3; with MOLM-13 xenograft (day of study 12), 1470 mm3 and 936 mm3 and 1183 mm3 and 1862 mm3 and 787 mm3 and 1080 mm3 and 1008 mm3 and 1152 mm3 and 1666 mm3; with MOLM-13 xenograft (day of study 15) it was 1913 mm3 and 1568 mm3 and 2025 mm3 and 2816 mm3 and 1268 mm3 and 1666 mm3 and 1764 mm3 and 3240 mm3; in the assay with MOLM-13 xenograft (day of study 19), 2025 mm3 and 2432 mm3 and 2176 mm3 and 2138 mm3 and 2250 mm3.

These data come from article PMC5218480 (PLoS ONE, 2017).
